Test results from paper PMC7953584, “An Experimental Study on [^125I]I-pHLIP (Var7) for SPECT/CT Imaging of an MDA-MB-231 Triple-Negative Breast Cancer Mouse Model by Targeting the Tumor Microenvironment” (Molecular Imaging, 2021).
Like-named read-outs stand apart in the source and are kept apart here. Residues, ends and D or L forms follow the SMILES beside them.

Assays:
[1] = In vitro stability in PBS buffer (radiochemical purity); assay type: physicochemical; conditions: 24 h, paper chromatography
Experimental: The purity of [^125I]I-pHLIP (Var7) was determined by paper chromatography. Normal saline was used as the developing agent, and Xinhua Grade 1 chromatography paper was used as the stationary phase. An appropriate amount of [^125I]I-pHLIP (Var7) eluent was aspirated by a capillary pipette and spotted at the origin of the chromatographic filter paper. After drying, the paper was placed vertically into a test tube containing the developing agent; the unfolded chromatographic filter paper was removed, air dried, and cut at intervals of 1 cm. The radioactivity count was measured segment by segment to calculate the radiochemical purity.
The purified [^125I]I-pHLIP (Var7) was placed at 4°C, at room temperature (25°C) in PBS buffer, and at 37°C in mouse serum. The radiochemical purity at different time points was measured, and the stability was determined. • Two hundred microliters of purified [^125I]I-pHLIP (Var7) solution was placed at 4°C and at room temperature in PBS buffer. Radiochemical purity was determined immediately after purification and at 1, 2, 4, 8, and 24 h after purification • Fifty microliters of purified [^125I]I-pHLIP (Var7) solution was mixed with 100 μL of mouse serum and placed in a 37°C water bath. Radiochemical purity was determined immediately after mixing and at 1, 2, 4, 8, and 24 h after mixing

[2] = Biodistribution in tumor-bearing nude mice; assay type: in vivo; conditions: female, BALB/c nude, mouse, iv, 1480 kBq/200 uL, total radioactivity, ~1480 kBq/200 μL tail vein, mean ± SD, n = 3; for tissue uptake at 0.5 h: 0.5 h after injection; for tissue uptake at 1 h: 1 h after injection; for tissue uptake at 2 h: 2 h after injection; for tissue uptake at 4 h: 4 h after injection; for tissue uptake at 8 h: 8 h after injection
Experimental: A mouse model bearing a human breast cancer cell line, MDA-MB-231, was established. MDA-MB-231 cells were cultured using the conventional method. Cells were collected at the logarithmic growth phase and washed once with PBS. The cells were then diluted to prepare suspensions at a concentration of approximately 1 × 10^6 cells/mL, which were temporarily stored in an ice box. Female 4-week-old BALB/c nude mice (16-20 g) were selected. MDA-MB-231 cells were inoculated subcutaneously using a disposable insulin syringe inserted into the right lateral thighs of the nude mice. The number of inoculated cells in each nude mouse was approximately 0.1 mL. The nude mice were raised under specific pathogen-free (SPF) conditions.
Biodistribution experiments were conducted when the tumor diameter was 0.8-1.0 cm. Purified [^125I]I-pHLIP (Var7) was diluted with PBS, and a total of 15 tumor-bearing nude mice with no significant differences in tumor size were randomly divided into five cohorts. Nude mice in each cohort were injected with [^125I]I-pHLIP (Var7) at approximately 1480 kBq/200 μL through the tail vein. At 0.5, 1, 2, 4, and 8 h after injection, blood was collected from the orbital sinus. The mice were sacrificed, and tissues and organs, including the heart, liver, spleen, lung, kidney, pancreas, stomach, small intestine, bladder, thyroid, brain, bone, muscle, and tumors, were collected and weighed. The radioactive count was measured, and the results were converted to %ID/g.

[3] = bladder, read-out: distribution in bladder
[4] = blood, read-out: distribution in blood
[5] = bone, read-out: distribution in bone
[6] = brain, read-out: distribution in brain
[7] = heart, read-out: distribution in heart
[8] = kidney, read-out: distribution in kidney
[9] = liver, read-out: distribution in liver
[10] = lung, read-out: distribution in lung
[11] = muscle, read-out: distribution in muscle
[12] = pancreas, read-out: distribution in pancreas
[13] = small intestine, read-out: distribution in small intestine
[14] = spleen, read-out: distribution in spleen
[15] = stomach, read-out: distribution in stomach
[16] = thyroid, read-out: distribution in thyroid
[17] = tumor (MDA-MB-231), MDA-MB-231 tumor, read-out: distribution in tumor

stability (radiochemical purity) ([1]; 4°C): higher than 98%
stability (radiochemical purity) ([1]; room temperature (25°C)): higher than 98%
tissue uptake at 0.5 h [2, 3]: 3.8 ± 1.1 %ID/g
tissue uptake at 1 h [2, 3]: 4.3 ± 1.1 %ID/g
tissue uptake at 2 h [2, 3]: 2.1 ± 0.9 %ID/g
tissue uptake at 4 h [2, 3]: 1 ± 0.6 %ID/g
tissue uptake at 8 h [2, 3]: 0.5 ± 0.2 %ID/g
tissue uptake at 0.5 h [2, 4]: 12 ± 1.5 %ID/g
tissue uptake at 1 h [2, 4]: 6.5 ± 1.5 %ID/g
tissue uptake at 2 h [2, 4]: 2.8 ± 0.6 %ID/g
tissue uptake at 4 h [2, 4]: 1.2 ± 0.5 %ID/g
tissue uptake at 8 h [2, 4]: 0.5 ± 0.1 %ID/g
tissue uptake at 0.5 h [2, 5]: 2.9 ± 0.3 %ID/g
tissue uptake at 1 h [2, 5]: 2.8 ± 0.1 %ID/g
tissue uptake at 2 h [2, 5]: 1.5 ± 0.5 %ID/g
tissue uptake at 4 h [2, 5]: 0.7 ± 0.2 %ID/g
tissue uptake at 8 h [2, 5]: 0.2 ± 0.1 %ID/g
tissue uptake at 0.5 h [2, 6]: 0.6 ± 0.1 %ID/g
tissue uptake at 1 h [2, 6]: 0.5 ± 0.1 %ID/g
tissue uptake at 2 h [2, 6]: 0.3 ± 0.1 %ID/g
tissue uptake at 4 h [2, 6]: 0.1 ± 0.1 %ID/g
tissue uptake at 8 h [2, 6]: 0.1 ± 0.1 %ID/g
tissue uptake at 0.5 h [2, 7]: 4.1 ± 0.5 %ID/g
tissue uptake at 1 h [2, 7]: 3.9 ± 0.7 %ID/g
tissue uptake at 2 h [2, 7]: 2 ± 0.4 %ID/g
tissue uptake at 4 h [2, 7]: 1.1 ± 1.1 %ID/g
tissue uptake at 8 h [2, 7]: 0.5 ± 0.3 %ID/g
tissue uptake at 0.5 h [2, 8]: 4.2 ± 0.6 %ID/g
tissue uptake at 1 h [2, 8]: 5.1 ± 1.1 %ID/g
tissue uptake at 2 h [2, 8]: 2.3 ± 0.8 %ID/g
tissue uptake at 4 h [2, 8]: 1.2 ± 0.4 %ID/g
tissue uptake at 8 h [2, 8]: 0.5 ± 0.2 %ID/g
tissue uptake at 0.5 h [2, 9]: 13.9 ± 2.7 %ID/g
tissue uptake at 1 h [2, 9]: 8 ± 1.9 %ID/g
tissue uptake at 2 h [2, 9]: 4 ± 0.6 %ID/g
tissue uptake at 4 h [2, 9]: 1.8 ± 0.2 %ID/g
tissue uptake at 8 h [2, 9]: 0.7 ± 0.2 %ID/g
tissue uptake at 0.5 h [2, 10]: 3.4 ± 1.2 %ID/g
tissue uptake at 1 h [2, 10]: 2.5 ± 1 %ID/g
tissue uptake at 2 h [2, 10]: 1.2 ± 0.5 %ID/g
tissue uptake at 4 h [2, 10]: 0.5 ± 0.3 %ID/g
tissue uptake at 8 h [2, 10]: 0.2 ± 0.1 %ID/g
tissue uptake at 0.5 h [2, 11]: 1.7 ± 0.6 %ID/g
tissue uptake at 1 h [2, 11]: 1.4 ± 0.8 %ID/g
tissue uptake at 2 h [2, 11]: 0.6 ± 0.2 %ID/g
tissue uptake at 4 h [2, 11]: 0.2 ± 0.1 %ID/g
tissue uptake at 8 h [2, 11]: 0.1 ± 0.1 %ID/g
tissue uptake at 0.5 h [2, 12]: 3.3 ± 0.8 %ID/g
tissue uptake at 1 h [2, 12]: 4.1 ± 1.2 %ID/g
tissue uptake at 2 h [2, 12]: 2.1 ± 0.6 %ID/g
tissue uptake at 4 h [2, 12]: 0.9 ± 0.3 %ID/g
tissue uptake at 8 h [2, 12]: 0.3 ± 0.1 %ID/g
tissue uptake at 0.5 h [2, 13]: 3.3 ± 1.5 %ID/g
tissue uptake at 1 h [2, 13]: 4.2 ± 0.6 %ID/g
tissue uptake at 2 h [2, 13]: 2.8 ± 1 %ID/g
tissue uptake at 4 h [2, 13]: 1.3 ± 0.5 %ID/g
tissue uptake at 8 h [2, 13]: 0.4 ± 0.1 %ID/g
tissue uptake at 0.5 h [2, 14]: 3 ± 1.1 %ID/g
tissue uptake at 1 h [2, 14]: 3 ± 0.6 %ID/g
tissue uptake at 2 h [2, 14]: 1.4 ± 0.4 %ID/g
tissue uptake at 4 h [2, 14]: 0.7 ± 0.2 %ID/g
tissue uptake at 8 h [2, 14]: 0.3 ± 0.1 %ID/g
tissue uptake at 0.5 h [2, 15]: 4.7 ± 1.2 %ID/g
tissue uptake at 1 h [2, 15]: 5.1 ± 1.2 %ID/g
tissue uptake at 2 h [2, 15]: 4.3 ± 1 %ID/g
tissue uptake at 4 h [2, 15]: 2.2 ± 0.8 %ID/g
tissue uptake at 8 h [2, 15]: 0.7 ± 0.2 %ID/g
tissue uptake at 0.5 h [2, 16]: 4.3 ± 1.7 %ID/g
tissue uptake at 1 h [2, 16]: 5.6 ± 1.4 %ID/g
tissue uptake at 2 h [2, 16]: 3.4 ± 1 %ID/g
tissue uptake at 4 h [2, 16]: 1.6 ± 0.8 %ID/g
tissue uptake at 8 h [2, 16]: 0.8 ± 0.4 %ID/g
tissue uptake at 0.5 h [2, 17]: 3.6 ± 0.5 %ID/g
tissue uptake at 1 h [2, 17]: 6.9 ± 0.4 %ID/g
tissue uptake at 2 h [2, 17]: 3.6 ± 0.7 %ID/g
tissue uptake at 4 h [2, 17]: 2 ± 0.6 %ID/g
tissue uptake at 8 h [2, 17]: 1 ± 0.4 %ID/g
Structure (SMILES): CC(C)C[C@H](NC(=O)[C@H](CCC(=O)O)NC(=O)[C@H](CC(C)C)NC(=O)[C@H](CC(C)C)NC(=O)[C@H](CC(C)C)NC(=O)[C@@H](NC(=O)[C@H](CCC(=O)O)NC(=O)[C@@H](NC(=O)[C@@H]1CCCN1C(=O)[C@H](Cc1ccccc1)NC(=O)[C@H](CC(C)C)NC(=O)[C@H](Cc1c[nH]c2ccccc12)NC(=O)[C@H](CCC(=O)O)NC(=O)[C@H](CC(C)C)NC(=O)[C@H](Cc1ccc(O)c(I)c1)NC(=O)[C@H](CCCNC(=N)N)NC(=O)[C@H](C)NC(=O)[C@H](Cc1c[nH]c2ccccc12)NC(=O)[C@@H]1CCCN1C(=O)[C@H](CC(N)=O)NC(=O)[C@H](CCC(N)=O)NC(=O)[C@H](CCC(=O)O)NC(=O)[C@H](CCC(=O)O)NC(=O)[C@H](C)N)[C@@H](C)O)[C@@H](C)O)C(N)=O [[^125I]I-pHLIP (Var7)] (HELM PEPTIDE1{A.E.E.Q.N.P.W.A.R.[O=C([C@H](Cc1ccc(O)c(I)c1)N[*:1])[*:2]].L.E.W.L.F.P.T.E.T.L.L.L.E.L.[am]}$$$$V2.0)
